From ChEMBL document CHEMBL5727613, “Benzimidazolone and benzothiazolone compounds and their use as AMPA receptor modulators” (2020) come the findings set out here.

Usually IC50 stands for the concentration that gives 50% inhibition.

This assay can be described thus: Calcium Flux Assay: This assay was used to test compounds for their ability to inhibit TARP γ8 dependent AMPA receptor activity. The AMPA receptor is a non-selective cation channel activated by glutamate. lonotropic glutamate receptors normally desensitize too rapidly to allow detectable calcium influx in a FLIPR assay (Strange et al. (2006). “Functional characterisation of homomeric ionotropic glutamate receptors GluR1-GluR6 in a fluorescence-based high throughput screening assay.” Comb Chem High Throughput Screen 9(2): 147-158). But, this desensitization is incomplete, and a substantial steady-state current remains in the sustained presence of glutamate (Cho et al. (2007). “Two families of TARP isoforms that have distinct effects on the kinetic properties of AMPA receptors and synaptic currents.” Neuron 55(6): 890-904).An in vitro assay was used to determine the potency of test compounds as inhibitors of the glutamate response of the channel formed by GluA1o-g8. To ensure a 1:1 stoichiometry of GluA1o and g8 subunits in the expressed channel, a fusion of the cDNAs for GRIA1o and CACNG8 was used. Channels expressed with this construct appear to have similar properties to channels formed by co-expression of GRIA1o with an excess of CACNG8 (Shi et al. 2009). A clonal cell line in HEK293 cells stably expressing this construct, with a geneticin selection marker, was generated for use in this assay. Cell expressing the GRIAlo-CACNG8 fusion construct were grown in a monolayer in 96- or 384-well microtiter plates. They were washed with assay buffer (135 mM NaCl, 4 mM KCl, 3 mM CaCl2), 1 mM MgCl2, 5 mM glucose, 10 mM HEPES, pH 7.4, 300 mOs) using a Biotek EL405 plate washer. The cells were then loaded with a calcium-sensitive dye (Calcium-5 or Calcium-6, Molecular Devices) and the test compounds at a range of concentrations. Calcium flux following the addition of 15 μM glutamate was monitored using a Molecular Devices FLIPR Tetra.The fluorescence in each well was normalized to the fluorescence of negative and positive control wells. […]. (Calcium assays in cells follow changes in intracellular calcium, usually with a dye or a luminescent sensor.)
`Cc1cccc(C)c1-c1ccc2[nH]c(=O)[nH]c2c1`: the IC50 was found to be 158 nM. With `O=c1[nH]c2ccc(-c3c(Cl)cccc3OC(F)(F)F)cc2s1` the figure was 2.51 nM; with `O=c1[nH]c2ccc(-c3c(Cl)cccc3C3CC3)cc2[nH]1`, 6.31 nM.
